Positions count from the first letter of the chain named.
Assays:
hVAChT W315A = target: T1, hVAChT W315A (Homo sapiens, UniProt Q16572, W315A); test: [3H]vesamicol saturation binding; conditions: pH 7.4
T1 sequence (Q16572 1-532 W315A): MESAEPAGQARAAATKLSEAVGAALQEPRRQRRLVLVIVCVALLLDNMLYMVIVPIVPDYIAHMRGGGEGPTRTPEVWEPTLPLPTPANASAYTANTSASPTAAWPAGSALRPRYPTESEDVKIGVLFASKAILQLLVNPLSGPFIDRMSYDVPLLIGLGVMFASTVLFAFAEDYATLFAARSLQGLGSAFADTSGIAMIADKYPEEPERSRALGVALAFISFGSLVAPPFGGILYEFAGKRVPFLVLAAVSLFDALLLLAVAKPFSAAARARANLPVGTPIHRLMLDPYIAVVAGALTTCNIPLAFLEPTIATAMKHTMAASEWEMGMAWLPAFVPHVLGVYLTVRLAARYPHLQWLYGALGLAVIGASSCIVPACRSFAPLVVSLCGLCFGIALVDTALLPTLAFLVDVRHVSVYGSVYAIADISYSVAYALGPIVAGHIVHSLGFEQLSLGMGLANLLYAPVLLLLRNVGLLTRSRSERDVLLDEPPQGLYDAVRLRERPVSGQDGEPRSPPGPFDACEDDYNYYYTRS

hVAChT A334F = target: T2, hVAChT A334F (Homo sapiens, UniProt Q16572, A334F); test: [3H]vesamicol saturation binding; conditions: pH 7.4
T2 sequence (Q16572 1-532 A334F): T1 sequence (Q16572 1-532 W315A) with A315W, A334F

hVAChT Y60W [1] = target: T3, hVAChT Y60W (Homo sapiens, UniProt Q16572, Y60W); test: [3H]vesamicol saturation binding; conditions: pH 7.4
T3 sequence (Q16572 1-532 Y60W): T1 sequence (Q16572 1-532 W315A) with Y60W, A315W

hVAChT Y60W [2] = target: T3, hVAChT Y60W; test: ACh equilibrium binding by competition against [3H]vesamicol
hVAChT W325H = target: T4, hVAChT W325H (Homo sapiens, UniProt Q16572, W325H); test: as above
T4 sequence (Q16572 1-532 W325H): T1 sequence (Q16572 1-532 W315A) with A315W, W325H

hVAChT W331A = target: T5, hVAChT W331A (Homo sapiens, UniProt Q16572, W331A); test: [3H]ACh transport; format: biochemical
T5 sequence (Q16572 1-532 W331A): T1 sequence (Q16572 1-532 W315A) with A315W, W331A

O[C@@H]1CCCC[C@H]1N1CCC(c2ccccc2)CC1 (racemic) [vesamicol, ( )-trans-2-(4-phenylpiperidino)cyclohexanol]
Bmax, maximal specific [3H]vesamicol binding (VAChT expression level) (hVAChT W315A): 26 ± 1 pmol/mg
Bmax, maximal specific [3H]vesamicol binding (VAChT expression level) (hVAChT A334F): 13 ± 1 pmol/mg
Bmax, maximal specific [3H]vesamicol binding (VAChT expression level) (hVAChT Y60W [1]): 34 ± 3 pmol/mg

CC(=O)OCC[N+](C)(C)C [ACh, acetylcholine]
Kd (hVAChT Y60W [2]): 4.5 ± 0.1 mM
tighter binding of ACh than by wild-type (hVAChT Y60W [2]; Y60W hVAChT vs wild-type): 2 fold
FHA, fraction of the ACh sites that have high affinity (hVAChT Y60W [2]; Y60W hVAChT, pH 7.4): 0.86 ± 0.02
Kd (hVAChT W325H): 5.5 ± 0.9 mM
FHA, fraction of the ACh sites that have high affinity (hVAChT W325H; W325H hVAChT, pH 7.4): 0.82± 0.06
[3H]ACh transport (hVAChT W331A): no transport

— article PMC2962730 (Journal of neurochemistry, 2010)
